From ChEMBL document CHEMBL1138438, “Structural-activity relationship study of highly-functionalized imidazolines as potent inhibitors of nuclear transcription factor-kappaB mediated IL-6 production” (Bioorg Med Chem, 2009)
The source made the active and inactive calls. The rule behind the calls is not given here.

How the values were obtained:
[1] = Inhibition of NF-kappaB-mediated gene transcription expressed in TNF-alpha-stimulated human HeLa cells for 30 mins before TNFalpha challenge measured after 8 hrs by steady-glo luciferase reporter gene assay; type: cell-based
[2] = tested on: Blood; assay: Antiinflammatory activity in human whole blood assessed as inhibition of IL-1-beta-stimulated IL6 production preincubated 2 hrs before IL1-beta challenge measured after 18 hrs by ELISA; type: functional, tissue-based
[3] = tested on: HeLa; assay: Stimulation of NF-kappaB-mediated gene transcription expressed in human HeLa cells for 30 mins before TNFalpha challenge measured after 8 hrs by steady-glo luciferase reporter gene assay; type: cell-based
[4] = Cytotoxicity against human 184B5 cells after 24 hrs by MTS assay; type: cell-based

| Compound | EC50 [1] [µM] | IC50 ([2]; read-out: IC50) [µM] | IC50 ([2]; read-out: Log IC50 (converted)) [µM] | Activity [2] | Activity [3] | CC50 at 24 h [4] [µM] |
| --- | --- | --- | --- | --- | --- | --- |
| COC(=O)[C@]1(Cc2ccccc2)N=C(c2ccccc2)N(Cc2ccccc2)[C@@H]1c1ccccc1 (racemic) | 5.3 | 4.1 | 4.07 | Dose-dependent effect | inactive | > 10 |
| CCOC(=O)[C@]1(c2ccccc2)N=C(c2ccccc2)N(C(C)=O)[C@@H]1c1ccccc1 (racemic) | 168 | > 20 |  | Dose-dependent effect | inactive | > 10 |
| CCOC(=O)[C@]1(c2ccccc2)N=C(c2ccccc2)N(Cc2ccccc2)[C@@H]1c1ccco1 (racemic) | 7.6 | 1.9 | 1.91 | Dose-dependent effect | inactive | > 10 |
| CCOC(=O)[C@]1(c2ccccc2)N=C(c2ccccc2)N[C@@H]1c1ccccc1 (racemic) | 116 | > 20 | 34.7 | Dose-dependent effect | inactive | > 10 |
| CCOC(=O)[C@]1(c2ccccc2)N=C(c2ccccc2)N(Cc2ccc(OC)cc2)[C@@H]1c1ccccc1 (racemic) | 5 | 1.4 | 1.38 | Dose-dependent effect | inactive | > 10 |
| CCOC(=O)[C@]1(c2ccccc2)N=C(c2ccccc2)N(Cc2ccccc2)[C@@H]1c1ccc(N)cc1 (racemic) | 10.4 | 0.5 | 0.457 | Dose-dependent effect | inactive | > 10 |
| CCOC(=O)[C@]1(c2ccccc2)N=C(c2ccccc2)N(Cc2ccco2)[C@@H]1c1ccccc1 (racemic) | 5.5 | 1.3 | 1.29 | Dose-dependent effect | inactive | > 10 |
| CCOC(=O)[C@]1(c2ccccc2)N=C(c2ccccc2)N(Cc2ccccc2)[C@@H]1c1ccc(F)cc1 (racemic) | 5 | 1 | 1.05 | Dose-dependent effect | inactive | > 10 |
| NC(=O)[C@]1(c2ccccc2)N=C(c2ccccc2)N(Cc2ccccc2)[C@@H]1c1ccccc1 (racemic) | > 20 | > 20 | 46.8 | Dose-dependent effect | inactive | > 10 |
| COC(=O)[C@]1(c2ccccc2)N=C(c2ccccc2)N(Cc2ccccc2)[C@@H]1c1ccccc1 (racemic) | 7.5 | 3 | 3.02 | Dose-dependent effect | inactive | > 10 |
| COC(=O)[C@]1(C)N=C(c2ccccc2)N(Cc2ccccc2)[C@@H]1c1ccccc1 (racemic) | > 20 | 3 | 2.95 | Dose-dependent effect | inactive | > 10 |
| CCOC(=O)[C@]1(c2ccccc2)N=C(c2ccccc2)N(Cc2ccc(C(F)(F)F)cc2)[C@@H]1c1ccccc1 (racemic) | 6.7 | 1.5 | 1.48 | Dose-dependent effect | inactive | > 10 |
| CCOC(=O)[C@]1(c2ccccc2)N=C(c2ccccc2)N(C(=O)c2ccccc2)[C@@H]1c1ccccc1 (racemic) | 24.9 | 6.6 | 6.61 | Dose-dependent effect | inactive | > 10 |
| CCOC(=O)[C@]1(c2ccccc2)N=C(c2ccccc2)N(S(=O)(=O)c2ccc(C)cc2)[C@@H]1c1ccccc1 (racemic) | 36.1 | 6.6 | 6.61 | Dose-dependent effect | inactive | > 10 |
| CCOC(=O)[C@]1(c2ccccc2)N=C(c2ccccc2)N(Cc2ccccc2)[C@@H]1c1ccncc1 (racemic) | > 20 | 9.4 | 9.33 | Dose-dependent effect | inactive | > 10 |
| COC(=O)[C@]1(Cc2cc3ccccc3[nH]2)N=C(c2ccccc2)N(Cc2ccccc2)[C@@H]1c1ccccc1 (racemic) | 13 | 16.1 | 16.2 | Dose-dependent effect | inactive | > 10 |
| CCOC(=O)[C@]1(c2ccccc2)N=C(c2ccccc2)N(Cc2ccc(F)cc2)[C@@H]1c1ccccc1 (racemic) | 5.2 | 1.2 | 1.2 | Dose-dependent effect | inactive | > 10 |
| COC(=O)[C@]1(C(C)C)N=C(c2ccccc2)N(Cc2ccccc2)[C@@H]1c1ccccc1 (racemic) | 20 | 7.1 | 7.08 | Dose-dependent effect | inactive | > 10 |

Now those with a lower EC50 [1], led by results:

| EC50 [1] [µM] | IC50 ([2]; read-out: IC50) [µM] | IC50 ([2]; read-out: Log IC50 (converted)) [µM] | Compound | Activity [2] | Activity [3] | CC50 at 24 h [4] [µM] |
| --- | --- | --- | --- | --- | --- | --- |
| 4.2 | 1.6 | 1.58 | CCOC(=O)[C@]1(c2ccccc2)N=C(c2ccccc2)N(Cc2ccc(Cl)cc2)[C@@H]1c1ccccc1 (racemic) | Dose-dependent effect | inactive | > 10 |
| 3.6 | 1.3 | 1.29 | CCOC(=O)[C@]1(c2ccccc2)N=C(c2ccccc2)N(Cc2ccccc2)[C@@H]1c1ccc(OC)cc1 (racemic) | Dose-dependent effect | inactive | > 10 |
| 3.5 | 5.9 | 5.89 | O=C(OCc1ccccc1)[C@]1(c2ccccc2)N=C(c2ccccc2)N(Cc2ccccc2)[C@@H]1c1ccccc1 (racemic) | Dose-dependent effect | inactive | > 10 |
| 3.5 | 1.9 | 1.95 | CC(C)OC(=O)[C@]1(c2ccccc2)N=C(c2ccccc2)N(Cc2ccccc2)[C@@H]1c1ccccc1 (racemic) | Dose-dependent effect | inactive | > 10 |
| 3.4 | 0.5 | 0.537 | CCOC(=O)[C@]1(c2ccccc2)N=C(c2ccccc2)N(Cc2ccccc2)[C@@H]1c1ccc([N+](=O)[O-])cc1 (racemic) | Dose-dependent effect | inactive | > 10 |
| 2.7 | 0.5 | 2 | CCOC(=O)[C@]1(c2ccccc2)N=C(c2ccccc2)N(Cc2ccc(Br)cc2)[C@@H]1c1ccccc1 (racemic) | Dose-dependent effect | inactive | > 10 |
| 2.3 | 1.9 | 1.95 | CCCOC(=O)[C@]1(c2ccccc2)N=C(c2ccccc2)N(Cc2ccccc2)[C@@H]1c1ccccc1 (racemic) | Dose-dependent effect | inactive | > 10 |
| 1.7 | 4.6 | 4.57 | CCOC(=O)[C@]1(c2ccccc2)N=C(c2ccccc2)N(Cc2ccc(C)cc2)[C@@H]1c1ccccc1 (racemic) | Dose-dependent effect | inactive | > 10 |
| 1.5 | 0.3 | 0.0617 | CCOC(=O)[C@]1(c2ccccc2)N=C(c2ccccc2)N(Cc2ccccc2)[C@@H]1c1ccc(Cl)cc1 (racemic) | Dose-dependent effect | inactive | > 10 |
| 1.4 | 0.8 | 0.851 | CCOC(=O)[C@]1(c2ccccc2)N=C(c2ccccc2)N(Cc2ccccc2)[C@@H]1c1ccc(C(F)(F)F)cc1 (racemic) | Dose-dependent effect | inactive | > 10 |
